Consider seven compounds from patent publication US20240261274A1, “TREATMENT OF MYC-DRIVEN CANCERS WITH GSPT1 DEGRADERS” (MONTE ROSA THERAPEUTICS, INC., priority 2021, published 2024).

Experiment [1] concerns the target T1, Full length wild-type cereblon CRBN (Homo sapiens, UniProt Q96SW2).
T1 construct: Full length wild-type cereblon CRBN (80.0 nM, 10 μL) was incubated in assay buffer
The experiment in a line: Fluorescence polarization (FP) assay indicating cereblon binding. Particulars: bounds stated; read-out: IC50 value. The method, then:
Compound activity was monitored in a fluorescence polarization (FP) homogeneous assay using 1-[5-({2-[2-(2-{[2-(2,6-dioxopiperidin-3-yl)-1,3-dioxo-2,3-dihydro-1H-isoindol-4-yl]oxy}acetamido)ethoxy]ethyl}carbamoyl)pentyl]-3,3-dimethyl-2-[(1E,3E)-5-[(2E)-1,3,3-trimethyl-5-sulfo-2,3-dihydro-1H-indol-2-ylidene]penta-1,3-dien-1-yl]-3H-indol-1-ium-5-sulfonate as a fluorescent probe. Unless otherwise stated, all reagents were purchased from Sigma Aldrich. Enzymatic reactions were conducted in Perkin-Elmer Black 384 well ProxiPlate Plus (catalogue no. 6008269) in 10 μL total volume. Full length wild-type cereblon CRBN (80.0 nM, 10 μL) was incubated in assay buffer containing 20 mM HEPES (pH 8.0), […], 0.5 mM TCEP and 0.05% Tween 20 in the presence or absence of compound (300 nL). Inhibitors were stored as 10 mM DMSO stocks in an inert environment (low humidity, dark, low oxygen, room temperature) using the Storage Pod System. Compounds and DMSO were dispensed using the Echo E5XX (Labcyte Inc. USA) to give concentrations from 300 to 0.937 or 3000 to 9.3 nM in a 12 data point curve. […] Following incubation at room temperature for 30 min, the assay was initiated by dispensing the probe to a final concentration of 5 nM (2.5 nL of a 20 μM stock) using the Echo E5XX. FP was measured after a period of 12 hours using a Pherastar plate reader (BMG Labtech, Germany) exciting at 590 nm and measuring the amount of parallel and perpendicular light at 675 nm. The FP signal was subsequently normalized to the no-compound control (i.e., DMSO). Analysis and IC50 values were derived using Dotmatics (Dotmatics UK) software.

Experiment [2] deals with HMEC engineered to express c-Myc tagged with EGFP. Briefly: 3D spheroid assay, myc-HMEC (CellTiterGlo3D). The experiment is classed as cell-based. Particulars: Homo sapiens, bounds (codes D and E), read-out: EC50 value. As for the experimental part: Human mammary epithelial cells (HMEC) were engineered to express either c-Myc tagged with EGFP or EGFP alone (non myc) (analogous but distinct from Kessler J D et al, Science. 2012 Jan. 20; 335(6066):348-53. doi: 10.1126/science.1212728; Hsu T Y et al, Nature. 2015 Sep. 17; 525(7569):384-8. doi: 10.1038/nature14985). The engineered cells were seeded at 1000 (myc) or 4000 (non myc) cells/well in a 384 ultra-low attachment plate in a total volume of 40 μL HMEC cell culture media (DMEM/F12+10% HI-FBS+15 mM HEPES+0.5 ug/ml Hydrocortisone+10 ug/ml Insulin+20 ng/ml EGF). Plates were spun at 1200 rpm for 5 minutes at room temperature to ensure that cells have gathered in the middle of the well and incubated at 37° C. for 48 hrs before firing with compounds. On Day 2 (48 h post seeding) cells were imaged (brightfield and EGFP fluorescence) using the Celigo imaging cytometer prior to firing compounds. For primary screens, compounds were added at three concentrations (1.25, 10 and 30 uM) in a volume of 120 nL using the ECHO acoustic dispenser and spun at 2000 rpm for 2 minutes at room temperature before incubating at 37° C. for 5 days. […] On Day 7, prior to measuring cell viability using CellTiterGlo3D, cells were imaged (brightfield and EGFP fluorescence) on the Celigo imaging cytometer. The CellTiterGlo3D reagent is added at 30 uL/well and incubated at room temperature for 30 mins. After 30 mins of incubation, luminescence readings were recorded using the Perkin Elmer EnVision reader.
A general note: In ATP-based viability assays light output follows the ATP content of the culture.

A further experiment concerns the target T2, IKZF1 (Homo sapiens, UniProt Q13422+Q96SW2).
T2 construct: endogenous in cells; host or cells: MM1 S (ATCC CRL-2974)
Briefly: Selectivity western blot assay in MM1 S cells, IKZF1. In kind it is cell-based. As to conditions: MM1 S cells, 0.3, 3 and 30 μM, 6 hours. Details: key: A represents no degradation observed at 30 μM; B represents trace degradation at 30 μM (below 20%); C represents weak degradation at 30 μM (below 50%); D represents degradation at 30 μM (>90%); E represents degradation at 3 μM (>90%); F represents degradation at 0.3 μM (>90%). The method, then: (§1) MM1 S cells were purchased from ATCC (cat. Number CRL-2974), sub-cultured in 90% RPMI 1640 with 10% FBS, supplemented with 1×P/S and incubated at 37° C., 5% CO2. Compounds were stored as 10 mM DMSO stock. For the assay, MM1 S cells (3 million cells/well) were plated in 6-well plates and incubated over night. Cells were treated with respective compounds using a serial dilution: 0.3 μM, 3 μM and 30 μM as well as a vehicle only (DMSO) control for 6 hours. Media with suspension cells was subsequently transferred to 15 mL conical tubes, wells rinsed twice with ice-cold PBS and merged with cell suspension in respective 15 mL conical tube. Cells were spinned down, supernatant aspirated, pellets resuspended in ice-cold PBS and transferred to microtubes. Cells were spinned down, supernatant aspirated and pellets resuspended in 120 μL RIPA lysis buffer supplemented with protease and phosphatase inhibitors. Cell lysates were incubated on ice for 20 minutes followed by centrifugation at >20,000×g for 5 min. Supernatants were transferred to fresh microtubes and stored at −80° C. Total protein concentration was determined using a BCA assay with a BSA standard curve and concentration of all samples was adjusted to 1 mg/mL. 25 μL 4×LDS sample buffer supplemented with 100 mM DTT was added to 75 μL sample. Samples were centrifuged (8,000×g, 1 min) and incubated at 95° C. for 5 min followed by another centrifugation step (8,000×g, 1 min). 20 μL of each sample was loaded on a 4-12% gel alongside a protein molecular weight marker. Gels were run in the presence of MOPS buffer at 80 Volts for 30 min, followed by 120 Volts for 1.5 h and proteins subsequently transferred onto nitrocellulose membranes at 20 Volts for 7 min using an iBlot2 Gel Transfer Device. Membranes were then cut horizontally into two pieces, covering 80-50 kDa and 50-25 kDa. Blocking the membranes was performed by gently shaking in 5% (w/v) skim milk in TSB-T for 1 hr at room temperature. All primary antibodies were used at a 1/1000 in 5% (w/v) BSA dissolved in TBST and incubated with membranes over night at 4° C. After three washes with 1×TBST for 5 min, HRP-coupled secondary antibodies diluted in 5% (w/v) BSA/TBST (Goat Anti-Rb IgG, dil. 1/10,000; Goat Anti-Mouse IgG, dil. 1/5000) were added for 1 hr at room temperature. After three washes with 1×TBST (5 minutes each), membranes were incubated with ECL reagent for 1 min at room temperature. Chemiluminescence signals were then detected using a LAS-4000 system with default settings and signals quantified using Image Studio Lite software (version 5.2). Membrane parts previously incubated with antibody against CK1 alpha were stripped off antibodies by incubating with stripping buffer for 30 minutes followed by three washed with TBST (5 min each), blocking with 5% (w/v) skim milk for 1 hr, and incubation with primary antibody against uGAPDH overnight at 4° C. Subsequent washes, incubation with secondary antibody and signal acquisition were performed as described above.
(In general: A western blot detects proteins with antibodies after separation by electrophoresis.)

The target of another experiment is T3, IKZF3 (Homo sapiens, UniProt Q96SW2+Q9UKT9).
T3 construct: endogenous in cells; host or cells: MM1 S (ATCC CRL-2974)
T3 sequence (Q9UKT9 whole entry): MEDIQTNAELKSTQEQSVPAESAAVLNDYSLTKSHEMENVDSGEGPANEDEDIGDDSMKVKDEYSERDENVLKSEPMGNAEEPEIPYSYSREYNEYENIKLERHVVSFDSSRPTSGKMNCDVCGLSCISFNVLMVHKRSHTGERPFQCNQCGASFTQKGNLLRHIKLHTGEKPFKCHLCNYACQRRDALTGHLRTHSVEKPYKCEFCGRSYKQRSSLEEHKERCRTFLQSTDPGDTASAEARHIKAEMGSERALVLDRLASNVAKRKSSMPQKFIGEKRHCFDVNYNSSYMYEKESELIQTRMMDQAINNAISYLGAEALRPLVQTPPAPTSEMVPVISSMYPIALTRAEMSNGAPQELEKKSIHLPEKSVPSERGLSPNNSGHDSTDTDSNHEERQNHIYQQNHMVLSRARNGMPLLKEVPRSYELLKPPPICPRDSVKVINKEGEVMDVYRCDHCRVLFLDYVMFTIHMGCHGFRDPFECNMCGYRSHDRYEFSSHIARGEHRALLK
T3 sequence (Q96SW2 whole entry): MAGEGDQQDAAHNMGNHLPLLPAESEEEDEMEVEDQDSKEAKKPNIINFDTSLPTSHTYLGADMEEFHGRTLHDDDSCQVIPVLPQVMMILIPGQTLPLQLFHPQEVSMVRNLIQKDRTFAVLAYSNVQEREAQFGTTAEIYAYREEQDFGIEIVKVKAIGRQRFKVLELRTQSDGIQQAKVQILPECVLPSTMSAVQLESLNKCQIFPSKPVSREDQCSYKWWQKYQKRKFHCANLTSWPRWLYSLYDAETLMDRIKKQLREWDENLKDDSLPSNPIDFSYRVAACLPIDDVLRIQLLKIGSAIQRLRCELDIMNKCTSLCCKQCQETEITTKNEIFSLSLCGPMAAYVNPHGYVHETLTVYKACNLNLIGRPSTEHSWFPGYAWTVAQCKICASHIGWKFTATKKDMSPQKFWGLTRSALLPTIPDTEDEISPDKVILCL
T3 sequence (Q16531 whole entry partner): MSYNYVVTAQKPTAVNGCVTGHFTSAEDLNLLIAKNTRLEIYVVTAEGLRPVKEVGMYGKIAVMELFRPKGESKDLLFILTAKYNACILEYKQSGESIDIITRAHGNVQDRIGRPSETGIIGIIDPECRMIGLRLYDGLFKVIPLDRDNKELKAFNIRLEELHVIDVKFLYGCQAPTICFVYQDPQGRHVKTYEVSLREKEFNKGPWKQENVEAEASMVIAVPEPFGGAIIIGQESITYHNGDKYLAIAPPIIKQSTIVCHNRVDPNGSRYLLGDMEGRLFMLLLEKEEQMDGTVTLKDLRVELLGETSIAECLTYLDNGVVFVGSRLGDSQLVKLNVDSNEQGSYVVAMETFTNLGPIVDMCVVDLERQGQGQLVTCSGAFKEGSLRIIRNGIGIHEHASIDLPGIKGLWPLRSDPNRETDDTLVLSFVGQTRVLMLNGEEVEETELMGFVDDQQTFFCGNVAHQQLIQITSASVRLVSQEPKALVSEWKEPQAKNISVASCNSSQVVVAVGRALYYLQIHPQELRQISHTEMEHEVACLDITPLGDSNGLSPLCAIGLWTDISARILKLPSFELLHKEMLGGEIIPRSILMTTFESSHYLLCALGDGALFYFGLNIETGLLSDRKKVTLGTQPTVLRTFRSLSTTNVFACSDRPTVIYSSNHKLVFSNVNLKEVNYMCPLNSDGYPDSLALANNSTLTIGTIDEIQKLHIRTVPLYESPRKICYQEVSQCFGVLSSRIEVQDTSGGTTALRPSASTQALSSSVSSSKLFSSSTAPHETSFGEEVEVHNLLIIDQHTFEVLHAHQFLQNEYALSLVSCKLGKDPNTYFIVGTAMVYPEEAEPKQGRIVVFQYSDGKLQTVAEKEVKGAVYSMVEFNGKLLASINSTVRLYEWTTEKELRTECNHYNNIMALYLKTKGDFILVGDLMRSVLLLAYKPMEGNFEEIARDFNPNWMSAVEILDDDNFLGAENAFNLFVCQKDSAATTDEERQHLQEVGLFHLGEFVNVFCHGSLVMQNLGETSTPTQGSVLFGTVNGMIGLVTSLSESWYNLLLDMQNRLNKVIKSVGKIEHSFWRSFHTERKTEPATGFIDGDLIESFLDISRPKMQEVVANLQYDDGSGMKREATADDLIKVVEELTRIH
Briefly: Selectivity western blot assay in MM1 S cells, IKZF3. Particulars: MM1 S cells, 0.3, 3 and 30 μM, 6 hours. Also noted: key: A represents no degradation observed at 30 μM; B represents trace degradation at 30 μM (below 20%); C represents weak degradation at 30 μM (below 50%); D represents degradation at 30 μM (>90%); E represents degradation at 3 μM (>90%); F represents degradation at 0.3 μM (>90%). In kind it is cell-based. As for the experimental part:
as §1

The target in the next experiment is T4, CK1alpha (Homo sapiens, UniProt P48729+Q96SW2).
T4 construct: endogenous in cells; host or cells: MM1 S (ATCC CRL-2974)
T4 sequence (P48729 whole entry): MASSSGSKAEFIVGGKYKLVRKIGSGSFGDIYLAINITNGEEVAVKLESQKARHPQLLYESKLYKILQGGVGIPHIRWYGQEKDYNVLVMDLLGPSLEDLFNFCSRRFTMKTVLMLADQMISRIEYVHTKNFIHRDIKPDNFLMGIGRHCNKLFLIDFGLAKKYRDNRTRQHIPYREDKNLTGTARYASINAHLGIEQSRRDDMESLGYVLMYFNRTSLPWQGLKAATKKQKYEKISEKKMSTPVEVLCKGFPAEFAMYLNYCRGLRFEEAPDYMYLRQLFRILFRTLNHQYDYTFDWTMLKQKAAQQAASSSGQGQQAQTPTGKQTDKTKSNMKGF
T4 sequence (Q96SW2 whole entry): as the sequence (Q96SW2 whole entry) above
T4 sequence (Q16531 whole entry partner): as the sequence (Q16531 whole entry partner) above
Briefly: Selectivity western blot assay in MM1 S cells, CK1alpha. The experiment is classed as cell-based. As to conditions: MM1 S cells, 0.3, 3 and 30 μM, 6 hours. The method, then: as §1

The next experiment concerns the target T5, ZFP91 (Homo sapiens, UniProt Q96JP5+Q96SW2).
T5 construct: endogenous in cells; host or cells: MM1 S (ATCC CRL-2974)
The experiment in a line: Selectivity western blot assay in MM1 S cells, ZFP91. In kind it is cell-based. As to conditions: MM1 S cells, 0.3, 3 and 30 μM, 6 hours. As for the experimental part: as §1

Experiment [3] addresses T6, GSPT1 (Homo sapiens, UniProt P15170+Q96SW2). Briefly: GSPT1 degradation immunofluorescence assay in CAL-51 cells. The experiment is classed as cell-based. As to conditions: 6 hours, Table 5A, read-out: Activity for GSPT1 degradation, Code (DC50). Also noted: endogenous in cells; host or cells: CAL-51 (DSMZ ACC302). As for the experimental part: CAL-51 cells were purchased from DSMZ (cat. Number ACC302), sub-cultured in 90% Dulbecco's MEM (4.5 g/L glucose, Gibco 11965)+10% heat inactivated FBS (BioConcept, 2-01F1361) and incubated at 37° C., 5% CO2. For the assay, imaging microtiterplate Cell Carrier 96 Ultra (Perkin Elmer 6055302) were pre-coated with Fibronectin (Sigma F085, 30 μl at 0.2 μg/ml) in PBS (100 μl, Gibco 14190) for 45 min at room temperature, rinsed with PBS and CAL-51 cells (30K cells/well) were plated and let to adhere overnight. Cells were treated with compounds typically using a serial dilution ranging from 30 μM to 0.1 nM for 6 hours. Compounds were stored at 10 mM DMSO stocks. Vehicle (DMSO), positive (CC-885, 10 μM) and rescue controls (positive control plus 0.2 μM bortezomib) were also included at this stage. Cells were subsequently rinsed with PBS and fixed in 10% Formalin solution (50 μl, Sigma HT5011)) for 20 mins at room temperature. Following three consecutive PBS washes (100 μl), cells were permeabilized in 0.1% Triton X-100 in PBS (Sigma 93443, 50 μl) for 15 mins at room temperature. Following three further PBS washes, 50 μl blocking buffer (1% BSA, Sigma A4503, in PBS) was added for 45 min for signal-to-noise reduction. Primary antibody (human GSPT1, Sigma HPA052488) was diluted in blocking buffer (dil. 1/300, 35 μl/well) and incubated with the cells overnight at 4° C. After three PBS washes, Alexa-fluor 488 coupled secondary antibodies (Invitrogen, A32731, dil. 1/1000), Alexa-fluor 647-Phalloidin (Invitrogen, A22287, dil. 1/200) and DAPI (Thermo, #62248, dil. 1/1000) were diluted in blocking buffer and incubated with the samples for 2 hours at room temperature. After three final PBS washes, samples were conserved in 100 μl PBS in the dark, until measurement. Image acquisition was performed on the Operetta High-Content Imager (Perkin-Elmer). Fluorescence intensity of Alexa-Fluor 488 (GSPT1), Alexa-Fluor 647 (Actin) and DAPI (Nucleus) were measured. For the determination of GSPT1 DC50 values, a custom algorithm implemented in the PerkinElmer image analysis software Harmony-Acapella® was developed. After user-defined setting of adjustment parameters, the analysis was run identically without human intervention for all image fields. DAPI staining of the nuclei was used to determine the location of cells using standard nuclei detection modules. Segmentation artifacts were removed by threshold-based filters for area, roundness and intensity. The outline of the cells was determined analogously from the sum of the normalized, smoothed DAPI and Actin channel, starting from each nucleus. The Alexa-Fluor 488 (GSPT1) signal intensity in each cell was finally measured, in order to obtain a Mean intensity per cell. GSPT1 degradation (DC50) was calculated after normalization to controls and data import in CDD vault Database, using non-linear regression.

Experiment [4] has as its target T6, GSPT1. Briefly: Selectivity western blot assay in MM1 S cells, GSPT1. In kind it is cell-based. Details: endogenous in cells; host or cells: MM1 S (ATCC CRL-2974). As to conditions: MM1 S cells, 0.3, 3 and 30 μM, 6 hours. As for the experimental part: as §1

T1 sequence (Q96SW2 whole entry): as the sequence (Q96SW2 whole entry) above
T6 sequence (P15170 whole entry): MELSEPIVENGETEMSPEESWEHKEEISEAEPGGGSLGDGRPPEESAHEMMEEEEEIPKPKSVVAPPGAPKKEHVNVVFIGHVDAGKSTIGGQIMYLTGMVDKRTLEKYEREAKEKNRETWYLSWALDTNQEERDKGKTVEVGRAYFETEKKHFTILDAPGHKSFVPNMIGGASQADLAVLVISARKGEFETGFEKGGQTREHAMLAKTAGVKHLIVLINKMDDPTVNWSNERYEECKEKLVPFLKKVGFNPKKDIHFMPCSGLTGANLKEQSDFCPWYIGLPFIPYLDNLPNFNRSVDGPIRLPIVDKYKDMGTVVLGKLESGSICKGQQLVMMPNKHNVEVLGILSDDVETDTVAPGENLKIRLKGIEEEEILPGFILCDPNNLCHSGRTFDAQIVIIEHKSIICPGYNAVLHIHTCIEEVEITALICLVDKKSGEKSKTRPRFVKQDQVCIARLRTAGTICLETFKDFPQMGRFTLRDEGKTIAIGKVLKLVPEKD
T6 sequence (Q96SW2 whole entry): as the sequence (Q96SW2 whole entry) above
T6 sequence (Q16531 whole entry partner): as the sequence (Q16531 whole entry partner) above
T2 sequence (Q13422 whole entry): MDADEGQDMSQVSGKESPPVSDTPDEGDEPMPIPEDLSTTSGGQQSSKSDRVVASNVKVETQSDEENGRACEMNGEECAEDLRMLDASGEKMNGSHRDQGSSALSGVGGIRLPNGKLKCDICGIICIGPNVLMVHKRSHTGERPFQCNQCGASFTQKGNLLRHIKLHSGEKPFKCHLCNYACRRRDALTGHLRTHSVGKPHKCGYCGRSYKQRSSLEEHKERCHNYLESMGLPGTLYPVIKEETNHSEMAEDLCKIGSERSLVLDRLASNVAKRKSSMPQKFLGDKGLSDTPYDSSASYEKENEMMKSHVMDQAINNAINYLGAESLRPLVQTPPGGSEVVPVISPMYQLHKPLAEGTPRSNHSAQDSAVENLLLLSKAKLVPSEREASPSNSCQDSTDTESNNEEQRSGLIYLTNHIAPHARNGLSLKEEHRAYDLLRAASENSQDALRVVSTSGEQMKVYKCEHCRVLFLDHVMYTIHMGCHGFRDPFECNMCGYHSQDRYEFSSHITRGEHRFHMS
T2 sequence (Q96SW2 whole entry): as the sequence (Q96SW2 whole entry) above
T2 sequence (Q16531 whole entry partner): as the sequence (Q16531 whole entry partner) above
T5 sequence (Q96JP5 whole entry): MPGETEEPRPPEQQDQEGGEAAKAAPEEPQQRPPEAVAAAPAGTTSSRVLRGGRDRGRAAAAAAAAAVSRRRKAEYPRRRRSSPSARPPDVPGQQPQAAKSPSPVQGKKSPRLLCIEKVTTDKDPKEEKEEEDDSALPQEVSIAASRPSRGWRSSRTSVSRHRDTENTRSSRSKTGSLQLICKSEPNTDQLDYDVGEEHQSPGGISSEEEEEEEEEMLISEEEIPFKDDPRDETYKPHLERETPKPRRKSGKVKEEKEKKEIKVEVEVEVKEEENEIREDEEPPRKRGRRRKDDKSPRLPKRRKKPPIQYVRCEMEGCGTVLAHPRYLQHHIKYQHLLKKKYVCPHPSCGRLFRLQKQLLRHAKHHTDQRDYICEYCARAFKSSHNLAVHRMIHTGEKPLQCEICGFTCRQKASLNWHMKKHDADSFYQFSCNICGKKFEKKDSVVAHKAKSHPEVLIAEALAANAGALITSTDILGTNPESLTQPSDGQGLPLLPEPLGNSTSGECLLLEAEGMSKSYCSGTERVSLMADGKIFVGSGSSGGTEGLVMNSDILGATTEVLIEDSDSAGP
T5 sequence (Q96SW2 whole entry): as the sequence (Q96SW2 whole entry) above
T5 sequence (Q16531 whole entry partner): as the sequence (Q16531 whole entry partner) above

Broadly, the IC50 is the midpoint of a concentration-inhibition curve. In general, EC50 refers to the midpoint of the concentration-response curve. Take `O=C1CCC(N2Cc3ccc(CNC(=O)Nc4ccc(Cl)c(Cl)c4)cc3C2=O)C(=O)N1` (stereo not shown) [Compound 46]: the IC50 in experiment [1] is below 600 nM. Moreover, in experiment [2], the EC50 was at most 2000 nM.
Regarding `Cc1cc(C)cc(NC(=O)NCc2ccc3c(c2)C(=O)N(C2CCC(=O)NC2=O)C3)c1` (stereo not shown) [Compound 20], the concentration for half-maximal inhibition (IC50) in experiment [1] was below 600 nM. Moreover, the EC50 in experiment [2] is at most 2000 nM.
On the same counts, the results for `COc1ccc(NC(=O)NCc2ccc3c(c2)C(=O)N(C2CCC(=O)NC2=O)C3)cc1Cl` (stereo not shown) [Compound 59] are below 600 nM and at most 2000 nM.
On to `Cc1ccc(NC(=O)NCc2ccc3c(c2)C(=O)N(C2CCC(=O)NC2=O)C3)cc1C` (stereo not shown) [Compound 68], for which the EC50 in experiment [2] is at most 2000 nM.
On the same count and under the same terms, next, `CCc1cccc(NC(=O)NCc2ccc3c(c2)C(=O)N(C2CCC(=O)NC2=O)C3)c1` (stereo not shown) [Compound 31]: at most 2000 nM.
The DC50 is the concentration at which degradation of the target reaches its halfway point. Take `O=C1CCC(N2Cc3ccc(COC(=O)Nc4cccc(OC(F)(F)F)c4)cc3C2=O)C(=O)N1` (stereo not shown) [Compound 203]: the IKZF1 degradation result at IKZF1 was “A”. In addition, at IKZF3, the IKZF3 degradation result is “A”. In addition, the CK1alpha degradation entry at CK1alpha was “B (B represents trace degradation at 30 μM (below 20%))”. The ZFP91 degradation entry at ZFP91 was “B (B represents trace degradation at 30 μM (below 20%))”. The DC50 at GSPT1 [3] was at most 30 nM. Also, the GSPT1 degradation entry at GSPT1 [4] was “F (F represents degradation at 0.3 μM (>90%))”.
For `O=C1CCC(N2Cc3ccc(CNC(=O)Nc4cccc(C(F)(F)F)c4)cc3C2=O)C(=O)N1` (stereo not shown) [Compound 47], in experiment [1], the IC50 is below 600 nM. Besides, the 50% effective concentration (EC50) in experiment [2] was at most 2000 nM.
